Reference: US8563542B2 (Cyclacel Limited, priority 2007, dated 2013)
Like-named read-outs stand apart in the source and are kept apart here.

Legend:
PLK2 = PLK2 (Homo sapiens, UniProt Q9NYY3); assay: PLK2 inhibition (PLK selectivity); assay type: biochemical; conditions: relative selectivity
PLK1 = PLK1 (Homo sapiens, UniProt P53350); assay: PLK1 protein kinase assay (CDC25C phosphorylation, [γ-32P]-ATP); assay type: biochemical; conditions: read-out: PLK1 IC50
PLK3 = PLK3 (Homo sapiens, UniProt Q9H4B4); assay: PLK3 inhibition (PLK selectivity); assay type: biochemical; conditions: relative selectivity
Chain of PLK3 (Q9H4B4 whole entry): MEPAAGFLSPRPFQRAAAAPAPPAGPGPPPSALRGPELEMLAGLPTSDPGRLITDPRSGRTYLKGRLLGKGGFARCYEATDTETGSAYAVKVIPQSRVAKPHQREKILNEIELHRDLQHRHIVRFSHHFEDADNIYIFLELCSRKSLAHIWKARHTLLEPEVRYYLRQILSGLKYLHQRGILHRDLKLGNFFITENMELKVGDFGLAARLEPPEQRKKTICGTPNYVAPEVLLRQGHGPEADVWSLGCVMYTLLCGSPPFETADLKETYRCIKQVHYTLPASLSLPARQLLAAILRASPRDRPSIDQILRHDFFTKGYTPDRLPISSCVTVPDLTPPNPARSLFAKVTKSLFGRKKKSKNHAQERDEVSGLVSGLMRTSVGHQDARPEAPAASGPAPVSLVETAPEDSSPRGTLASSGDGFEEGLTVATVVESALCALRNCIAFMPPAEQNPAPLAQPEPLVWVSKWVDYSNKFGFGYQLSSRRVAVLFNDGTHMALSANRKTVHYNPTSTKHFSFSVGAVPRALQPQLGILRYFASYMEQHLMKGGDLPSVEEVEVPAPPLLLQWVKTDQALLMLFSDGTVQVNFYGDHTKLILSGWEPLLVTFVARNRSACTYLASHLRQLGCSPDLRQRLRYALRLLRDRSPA

[1] = system: A2780 and A2780/ADR cells; assay: Cell viability assay (Alamar Blue, 72 h), parental/MDR pair, asymmetry ratio; assay type: cell-based, human; conditions: paired parental and MDR tumour cell lines; Example 9, FIG. 3
Text: In vitro cell viability assays have been used to measure the effect of drug accumulation in paired parental and drug resistant tumour cell lines. The pairs used are the human ovarian carcinoma A2780 line with its MDR counterpart A2780/ADR and the human uterine sarcoma MES-SA line with its MDR counterpart MES-SA/Dx5 [Wesolowska O., et al. (2005) Anticancer Res., 25, 383-389].
Method: Cultivated human tumour cells of the ovarian cell line A2780 and its doxorubicin-resistant pair, A2780/ADR and the uterine cell line MES-SA and its doxorubicin-resistant pair, MES-SA/DX5 were seeded at 3000 cells per well in Nunc 96-well tissue culture plates, 100 μl per well in DMEM media containing 10% foetal calf serum and penicillin/streptomycin. […] The plates were then read at 544/595 nm.
The amount of Alamar Blue reagent reacted represents the metabolic activity of the cells. […] The values were calculated from the average of three individual measurements with blank correction (medium-only control).
The assay was performed on the Biomek FxP, automation platform from Beckman Coulter. The plates were read on the Paradigm plate reader supplied by Beckman Coulter. Asymmetry ratios were calculated as the IC50 value of the compound in the drug resistant cells divided by the IC50 value in the parental cells. […]

[2] = Pharmacokinetics in fasted conscious CD-1 mice (iv and oral); assay type: in vivo; conditions: 1 mg/kg iv, 5-10 mg/kg oral
Procedure: Preliminary investigations of the pharmacokinetics of selected compounds were carried out in fasted conscious CD-1 mice (25-30 g). Compounds were dosed as 1 mg/kg by intravenous administration or 5-10 mg/kg by oral route. Twenty one male mice per administration route (n=3 mice per time point) received dose solution by single bolus injection in the tail vein or by oral gavage. Blood samples were collected by cardiac puncture at 5, 15, 30, 60, 120, 240 and 360 min following iv administration and at 30, 60, 120, 240, 360, 480 and 1440 min following oral administration. Blood samples were collected into tubes containing the anti-coagulant lithium heparin, mixed and placed promptly on crushed ice. Plasma was derived from whole blood by centrifugation, frozen and stored at −80° C. prior to analysis. Plasma concentrations were determined by liquid chromatography-tandem mass spectrometry in electrospray positive mode (ESI LC/MS/MS) using calibration curves prepared in the appropriate matrix. The lower level of quantification (LLOQ) in all cases was ca. 5 ng/mL. Plasma concentration-time data was processed using the computer program WinNonLin version 5.2 from which areas under the plasma concentration-time curve (AUCall) were calculated by non-compartmental analysis using Model 201 (IV-bolus Input) or Model 200 (Extravascular Input).
FIG. 1 plots the area under the curve (AUC) for plasma concentration vs time for each compound tested. The dosing vehicle across these experiments remained constant (intravenous=citrate buffer pH 3, 1 mL/kg; oral=DMA/PEG400/10 […] Tartrate buffer, pH 4 (1:3:6), 5 ml/kg). FIG. 2 represents the same data in the form of oral bioavailability (% F) for each compound.

AA = target: T1, AA (Homo sapiens, UniProt O14965); assay: AA IC50 (Table 1; no method given); assay type: biochemical; conditions: Table 2, AurA IC50; class symbols; read-out: AurA IC50
T1 sequence (O14965 1-403): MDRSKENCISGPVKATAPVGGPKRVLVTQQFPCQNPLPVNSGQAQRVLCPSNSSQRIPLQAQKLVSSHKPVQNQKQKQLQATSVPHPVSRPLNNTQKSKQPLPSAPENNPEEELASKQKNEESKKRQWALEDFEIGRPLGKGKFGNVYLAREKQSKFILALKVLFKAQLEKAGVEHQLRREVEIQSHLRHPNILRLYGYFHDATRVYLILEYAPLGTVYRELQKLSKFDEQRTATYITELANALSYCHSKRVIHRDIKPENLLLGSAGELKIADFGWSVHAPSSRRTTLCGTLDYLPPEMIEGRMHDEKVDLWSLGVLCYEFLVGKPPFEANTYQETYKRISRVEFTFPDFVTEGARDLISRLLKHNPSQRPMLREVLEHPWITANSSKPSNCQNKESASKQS

[3] = Table 2, PLK1 IC50, class symbols

Chain of PLK2 (Q9NYY3 whole entry): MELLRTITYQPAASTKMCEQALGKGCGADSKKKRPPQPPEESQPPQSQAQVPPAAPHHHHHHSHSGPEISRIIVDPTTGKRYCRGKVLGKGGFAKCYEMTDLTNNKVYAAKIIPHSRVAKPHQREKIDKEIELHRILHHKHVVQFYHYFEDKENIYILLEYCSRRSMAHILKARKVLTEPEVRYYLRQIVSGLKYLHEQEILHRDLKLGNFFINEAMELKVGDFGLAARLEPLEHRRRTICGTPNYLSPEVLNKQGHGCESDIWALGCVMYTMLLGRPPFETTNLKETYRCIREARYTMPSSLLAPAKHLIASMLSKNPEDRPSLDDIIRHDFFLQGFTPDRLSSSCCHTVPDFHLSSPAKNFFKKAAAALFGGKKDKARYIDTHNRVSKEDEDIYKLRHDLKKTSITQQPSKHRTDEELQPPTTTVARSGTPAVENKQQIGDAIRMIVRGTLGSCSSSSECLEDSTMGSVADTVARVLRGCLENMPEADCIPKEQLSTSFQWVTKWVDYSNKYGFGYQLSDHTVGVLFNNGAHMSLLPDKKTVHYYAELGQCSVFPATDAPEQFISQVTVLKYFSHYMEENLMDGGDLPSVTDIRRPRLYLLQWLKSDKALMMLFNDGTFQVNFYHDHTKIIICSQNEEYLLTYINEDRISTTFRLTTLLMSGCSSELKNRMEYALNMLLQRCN
Chain of PLK1 (P53350 whole entry): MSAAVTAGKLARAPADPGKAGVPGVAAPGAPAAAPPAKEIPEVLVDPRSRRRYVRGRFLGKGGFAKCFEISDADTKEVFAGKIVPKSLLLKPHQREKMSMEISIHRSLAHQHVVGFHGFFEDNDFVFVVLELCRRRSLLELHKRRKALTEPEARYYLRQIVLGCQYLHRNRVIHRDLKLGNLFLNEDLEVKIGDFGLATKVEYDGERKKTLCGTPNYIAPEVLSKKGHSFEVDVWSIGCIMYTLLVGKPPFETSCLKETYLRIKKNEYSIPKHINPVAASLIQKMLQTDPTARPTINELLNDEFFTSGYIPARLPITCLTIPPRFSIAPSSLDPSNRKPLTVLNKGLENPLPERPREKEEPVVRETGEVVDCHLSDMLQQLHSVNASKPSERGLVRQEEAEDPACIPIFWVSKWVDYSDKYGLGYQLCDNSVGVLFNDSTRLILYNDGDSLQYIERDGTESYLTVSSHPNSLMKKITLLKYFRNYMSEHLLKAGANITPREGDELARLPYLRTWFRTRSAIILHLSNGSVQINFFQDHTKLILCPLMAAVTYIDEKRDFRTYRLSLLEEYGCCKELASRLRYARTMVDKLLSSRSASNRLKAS

With `COc1cc(C(=O)NC2CN3CCC2CC3)ccc1Nc1ncc2c(n1)N(C1CCCC1)CC1(CCC1)C(=O)N2C` (racemic) [Compound 218, (±)-4-(9′-cyclopentyl-5′-methyl-6′-oxo-5′,6′,8′,9′-tetrahydrospiro[cyclobutane-1,7′-pyrimido[4,5-b][1,4]diazepine]-2′-ylamino)-3-methoxy-N-(quinuclidin-3-yl)benzamide] the “Selectivity for PLK1 versus PLK2 compared to compound [I-4] of WO 07/095188” value (PLK2) was 7 fold, the “Selectivity for PLK1 versus PLK2 compared to compound [I-64] of WO 07/095188” value (PLK2) was “twice” and the “Selectivity for PLK1 versus PLK2 compared to compound [I-76] of WO 07/095188” value (PLK2) was roughly 6 fold. It also gave an IC50 (PLK1; [3]) of less than 100 nM, an IC50 (PLK1; Table 3) of less than 100 nM and an IC50 (PLK1; Table 4) of less than 100 nM. For the same compound, the “Selectivity for PLK1 versus PLK3 compared to compound [I-4] of WO 07/095188” value (PLK3) was 5 fold, the “Selectivity for PLK1 versus PLK3 compared to compound [I-64] of WO 07/095188” value (PLK3) was 5 fold and the “Selectivity for PLK1 versus PLK3 compared to compound [I-76] of WO 07/095188” value (PLK3) was roughly 12 fold.
With `COc1cc(C(=O)N[C@H]2CC[C@H](N3CCN(CC4CC4)CC3)CC2)ccc1Nc1ncc2c(n1)N(C1CCCC1)CC(C)(C)C(=O)N2C` [Compound 372, 4-(9-cyclopentyl-5,7,7-trimethyl-6-oxo-6,7,8,9-tetrahydro-5H-pyrimido[4,5-b][1,4]diazepin-2-ylamino)-N-((trans)-4-(4-(cyclopropylmethyl)piperazin-1-yl)cyclohexyl)-3-methoxybenzamide] the “Cellular efflux (MDR/parental cell asymmetry in cell viability assays)” value [1] was “low cellular efflux” and the IC50 (PLK1; Table 3) was less than 100 nM.
With `COc1cc(C(=O)N[C@H]2CC[C@H](N3CCN(CC4CC4)CC3)CC2)ccc1Nc1ncc2c(n1)N(C1CCCC1)CC1(CC1)C(=O)N2C` [H] the “Oral bioavailability (% F) compared to compounds A-G” value [2] was “markedly superior” and the “Systemic exposure (plasma AUC) compared to compounds A-G” value [2] was “markedly superior”.
In the case of `COc1cc(C(=O)N[C@H]2CC[C@H](N3CCN(CC4CC4)CC3)CC2)ccc1Nc1ncc2c(n1)N(C1CCCC1)CCC(=O)N2C` [I], the “Oral bioavailability (% F) compared to compounds A-G” value [2] is reported as “markedly superior” and the “Systemic exposure (plasma AUC) compared to compounds A-G” value [2] is reported as “markedly superior”.
With `CN1C(=O)CCN(C2CCCC2)c2nc(Nc3ccc4c(c3)NC(=O)CO4)ncc21` [compound 299, 9-Cyclopentyl-5-methyl-2-(3-oxo-3,4-dihydro-2H-benzo[1,4]oxazin-6-ylarnino)-5,7,8,9-tetrahydro-pyrimido[4,5-b][1,4]diazepin-6-one] the IC50 (AA) was less than 100 nM and the IC50 (PLK1; [3]) was less than 10000 nM.
In the case of `CN1C(=O)CCN(C2CCCC2)c2nc(Nc3ccc(S(=O)(=O)N(C)C)cc3)ncc21` [compound 300, 4-(9-Cyclopentyl-5-methyl-6-oxo-6,7,8,9-tetrahydro-5H-pyrimido[4,5-b][1,4]diazepin-2-ylamino)-N,N-dimethyl-benzenesulfonamide], the IC50 (AA) is reported as less than 100 nM and the IC50 (PLK1; [3]) is reported as less than 10000 nM.
For `CC(=O)Nc1ccc(Nc2ncc3c(n2)N(C2CCCC2)CCC(=O)N3C)cc1Cl` [compound 324, N-[2-Chloro-4-(9-cyclopentyl-5-methyl-6-oxo-6,7,8,9-tetrahydro-5H-pyrimido[4,5-b][1,4]diazepin-2-ylamino)-phenyl]-acetamide], the IC50 (AA) was less than 1000 nM and the IC50 (PLK1; [3]) was less than 10000 nM.
In the case of `CN1CCC(NC(=O)c2ccc(Nc3ncc4c(n3)N(C3CCCC3)CC3(CC3)C(=O)N4C)cc2)CC1` [compound 349, 4-(9-Cyclopentyl-5-methyl-6-oxo-6,7,8,9-tetrahydro-5H-spiro[pyrimido[4,5-b][1,4]diazepin-3,1'-cyclopropane]-2-ylamino)-N-(1-methyl-piperidin-4-yl)-benzamide], the IC50 (AA) is reported as less than 10000 nM and the IC50 (PLK1; [3]) is reported as less than 1000 nM.
